Experimental data published in US10920265B2, “Compounds and methods for detection of enzymes that remove methyl succinyl groups from epsilon-amino lysine moieties” (Enzo Life Sciences, Inc., priority 2011, dated 2021).
Where “and” joins values, the source holds several entries; their conditions need not be identical. Equal values may be shown once. *: point of attachment. AMC = Cc1cc(=O)oc2cc(N*)ccc12

How the values were obtained:
Conditions in all cases: 50 μM substrate
[1] = biological target: T1, HDAC3/NCOR1 Complex (Homo sapiens, UniProt O15379); experiment: HDAC activity with fluorogenic lysyl substrates; type: biochemical
T1 construct: purchased ENZO Life Sciences BML-SE515
T1 sequence (O15379 whole entry): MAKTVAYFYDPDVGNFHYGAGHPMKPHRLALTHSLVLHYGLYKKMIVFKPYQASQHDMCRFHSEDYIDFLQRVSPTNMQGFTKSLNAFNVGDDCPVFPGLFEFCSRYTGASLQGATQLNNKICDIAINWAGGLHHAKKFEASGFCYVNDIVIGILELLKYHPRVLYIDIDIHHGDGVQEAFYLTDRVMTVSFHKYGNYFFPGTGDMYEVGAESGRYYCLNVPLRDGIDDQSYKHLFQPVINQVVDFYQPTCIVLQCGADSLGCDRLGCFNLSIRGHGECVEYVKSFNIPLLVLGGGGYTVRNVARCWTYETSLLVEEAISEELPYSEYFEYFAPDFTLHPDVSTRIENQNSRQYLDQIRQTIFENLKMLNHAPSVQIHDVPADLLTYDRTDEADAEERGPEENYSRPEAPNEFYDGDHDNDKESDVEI
T1 sequence (O75376 395-489 partner limits assumed): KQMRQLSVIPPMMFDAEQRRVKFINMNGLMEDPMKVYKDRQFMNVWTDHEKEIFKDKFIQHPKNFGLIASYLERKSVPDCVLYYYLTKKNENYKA
How it was run: (§1)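 Fluorescence of AMC freed by trypsin after deacylation gave the activity read-out. Reactions held recombinant human HDAC or SIRT enzymes, or HeLa nuclear or whole-cell extract, with acylated lysyl-AMC substrates at 37 °C, following SIRT1 kit instructions.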

[2] = biological target: T2, HDAC5 (Homo sapiens, UniProt Q9UQL6); experiment: HDAC activity with fluorogenic lysyl substrates; type: biochemical
T2 construct: made in house; host or cells: E. coli
T2 sequence (Q9UQL6 656-1122): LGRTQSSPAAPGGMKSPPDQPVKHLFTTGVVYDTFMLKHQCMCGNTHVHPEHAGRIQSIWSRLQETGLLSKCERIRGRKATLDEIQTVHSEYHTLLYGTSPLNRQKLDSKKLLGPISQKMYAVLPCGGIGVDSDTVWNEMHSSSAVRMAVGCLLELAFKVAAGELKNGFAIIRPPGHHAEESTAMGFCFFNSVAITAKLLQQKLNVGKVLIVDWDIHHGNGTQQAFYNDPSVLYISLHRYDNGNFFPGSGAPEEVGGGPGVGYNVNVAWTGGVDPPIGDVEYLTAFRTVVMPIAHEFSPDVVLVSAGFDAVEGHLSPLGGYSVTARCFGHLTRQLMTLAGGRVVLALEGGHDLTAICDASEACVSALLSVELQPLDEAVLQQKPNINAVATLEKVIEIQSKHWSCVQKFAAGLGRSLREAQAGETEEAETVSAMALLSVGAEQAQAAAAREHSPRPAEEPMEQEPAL
How it was run: as §1

[3] = biological target: T3, HDAC7 (Homo sapiens, UniProt Q8WUI4); experiment: HDAC activity with fluorogenic lysyl substrates; type: biochemical
T3 construct: made in house; host or cells: E. coli
T3 sequence (Q8WUI4 483-903): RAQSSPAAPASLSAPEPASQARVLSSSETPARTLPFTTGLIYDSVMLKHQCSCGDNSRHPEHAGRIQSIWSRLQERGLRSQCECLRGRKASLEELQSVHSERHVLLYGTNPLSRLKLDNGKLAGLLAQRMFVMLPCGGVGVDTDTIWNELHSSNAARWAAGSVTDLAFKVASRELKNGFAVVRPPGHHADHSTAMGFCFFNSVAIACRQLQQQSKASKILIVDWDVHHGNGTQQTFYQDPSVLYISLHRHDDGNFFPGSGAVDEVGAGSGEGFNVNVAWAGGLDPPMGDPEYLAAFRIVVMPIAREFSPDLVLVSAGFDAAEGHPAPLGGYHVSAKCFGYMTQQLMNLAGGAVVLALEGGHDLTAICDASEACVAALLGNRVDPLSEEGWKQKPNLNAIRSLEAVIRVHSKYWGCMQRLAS
How it was run: as §1

[4] = biological target: T4, HDAC3 (Homo sapiens, UniProt O15379); experiment: HDAC activity with fluorogenic lysyl substrates; type: biochemical
T4 construct: purchased ENZO Life Sciences BML-SE507
T4 sequence (O15379 whole entry): as the sequence (O15379 whole entry) above
How it was run: as §1

[5] = biological target: T5, HDAC11 (Homo sapiens, UniProt Q96DB2); experiment: HDAC activity with fluorogenic lysyl substrates; type: biochemical
T5 construct: purchased ENZO Life Sciences BML-SE560
T5 sequence (Q96DB2 1-347): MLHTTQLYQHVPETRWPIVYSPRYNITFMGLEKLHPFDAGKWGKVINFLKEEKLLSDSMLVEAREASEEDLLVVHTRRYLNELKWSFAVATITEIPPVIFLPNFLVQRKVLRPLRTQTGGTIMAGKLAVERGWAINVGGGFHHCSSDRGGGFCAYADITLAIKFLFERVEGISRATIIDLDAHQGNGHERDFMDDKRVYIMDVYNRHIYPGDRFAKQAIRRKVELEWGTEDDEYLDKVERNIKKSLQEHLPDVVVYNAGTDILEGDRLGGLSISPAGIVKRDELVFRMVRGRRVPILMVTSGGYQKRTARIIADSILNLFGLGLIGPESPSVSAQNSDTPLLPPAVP
How it was run: as §1

[6] = tested on: HeLa Nuclear Extract; experiment: Activity of HeLa nuclear extract with fluorogenic lysyl substrates; type: biochemical, human
Experimental: The Ac-Lys(Succ.)-AMC substrate was tested for activity with recombinant preparations of human HDACs 1-11, SIRTs 1-4, 6 and 7, a complex of HDAC3 with a fragment of the activating protein NCOR1 and with HeLa nuclear extract, a rich source of active HDACs in their native multiprotein complexes.
Enzyme and extract catalog products obtained from ENZO Life Sciences included: HDAC1 (Cat. # BML-SE456), HDAC2 (Cat. # BML-SE500), HDAC3 (Cat. # BML-SE507), HDAC3/NCOR1 Complex (Cat. # BML-SE515), HDAC6 (Cat. # BML-SE508), HDAC8 (Cat. # BML-SE145), HDAC10 (Cat. # BML-SE559), HDAC11 (Cat. # BML-SE560), SIRT1 (Cat. # BML-SE239), SIRT2 (Cat. # BML-SE251), SIRT3 (Cat. # BML-SE270), SIRT5 (Cat. # BML-SE555), HeLa Nuclear Extract (Cat. # BML-KI140), Trypsin (“Fluor de Lys Developer”, 80 mg/ml bovine trypsin in 1 mM HCl, Cat. # BML-KI105 or “Fluor de Lys Developer II”, 80 mg/ml bovine trypsin in 1 mM HCl, Cat. # BML-KI176). […] Enzymes obtained from BPS Bioscience, San Diego, Calif. included: human recombinants SIRT4 (Cat. #50015), SIRT6 (Cat. #50017), SIRT7 (Cat. #50018). HeLa whole cell extract was obtained from HeLa S3 cells (American Type Culture Collection) grown in a medium of MEM/10% fetal bovine serum (FBS) as follows: 1) 9×10^6 cells were suspended by trypsinization, followed by a phosphate buffered saline (PBS) rinse and addition of MEM/10% FBS (1.5 mL) to eliminate trypsin before transfer to a 15 mL conical tube; 2) cells were sedimented by a low speed centrifugation, gently resuspended in PBS and sedimented again and supernatant removed; 3) lysis was induced by resuspension in 0.8 mL 50 mM Tris/HCl, pH 8.0 with the non-denaturing detergent NP-40 (0.5%), placement on ice and brief vortexing every 5 min. for 30 min.; 4) 100 μl of a concentrated salt solution in the same buffer was added in order to bring the final buffer composition to 50 mM Tris/C1, pH 8.0, 137 mM NaCl, 2.7 mM KCl, 1 mM MgCl2, 0.5% NP-40; 5) particulate matter was cleared by centrifugation and the cleared lysate supernatant transferred to a 1.5 mL Eppendorf tube and stored on ice until use in activity assays.
Assays were performed at 37° C., according to the manufacturer's instructions for the “SIRT1 Fluorometric Drug Discovery Kit” from Enzo Life Sciences (ELS) (Cat. # BML-AK555), with exceptions described as follows. Where indicated in figures and text, SIRT1 enzyme was replaced with another enzyme or extract and the “Fluor de Lys-SIRT1 Substrate” (Ac-Arg-His-Lys-Lys(Ac)-AMC; ELS Cat. # BML-KI-177) was replaced with another acetylated, succinylated or trifluoroacetylated substrate.

Compound	Activity [1] [pmol/min/µg]	Activity (pmol/min/μg) [2]	Activity (pmol/min/μg) [3]	Activity ([4]; listed as Ac-Lys(Acetyl)-AMC)	Activity [5] [pmol/min/µg]	Activity [6] [pmol/min/µg]	Activity [4] [pmol/min/µg]	Activity (pmol/min/μg) [1]	Activity (pmol/min/μg) [5]	Activity (pmol/min/μg) [4]
CC(=O)NCCCCC(NC(C)=O)C(=O)Nc1ccc2c(C)cc(=O)oc2c1 (stereo not drawn) [Ac-Lys(Ac.)-AMC, Ac-Lys(ε-acetyl)-AMC, reference compound]	668	Undetectable	Undetectable	3.8 pmol/min/µg and 3.80 pmol/min/µg	4.15	31				
COC(=O)CCC(=O)NCCCC[C@H](NC(C)=O)C(=O)Nc1ccc2c(C)cc(=O)oc2c1 [Compound 5, N—(N^α-acetyl-L-Lysine(N^ε-methyl succinyl))-AMC]	53.750	Undetectable	Undetectable			1.764	0.431			
Ac-Arg-His-Lys-Lys(ε-acetyl)-AMC (Ac-RHKK(Ac)-{AMC}; SMILES CC(=O)NCCCC[C@H](NC(=O)[C@H](CCCCN)NC(=O)[C@H](Cc1c[nH]cn1)NC(=O)[C@H](CCCNC(=N)N)NC(C)=O)C(=O)Nc1ccc2c(C)cc(=O)oc2c1) [Ac-RHKK(Ac)-AMC, p53 peptide fluorogenic deacetylase substrate, Cat. # BML-KI177, reference compound]								Ac-RHKK(Ac)-AMC/687 pmol/min/μg	Ac-RHKK(Ac)-AMC/6.09 pmol/min/μg	
CCCCCCCCCCCCCC(=O)NCCCC[C@H](NC(C)=O)C(=O)Nc1ccc2c(C)cc(=O)oc2c1 [Compound 4, N—(N^α-acetyl-L-Lysine(N^ε-myristoyl))-AMC]	79.023	Undetectable	Undetectable			0.819	0.963			
CC(=O)N[C@@H](CCCCNC(=O)CCC(=O)O)C(=O)Nc1ccc2c(C)cc(=O)oc2c1 [Compound 1, N—(N^α-acetyl-L-Lysine(N^ε-succinyl))-AMC]	0.40	Undetectable	Undetectable			0.012			Undetectable	Undetectable
